Results reported in ChEMBL document CHEMBL5053507, “Oxadiazepinone HBV capsid assembly modulators” (Bioorg Med Chem Lett, 2021).
≈ marks a conversion by molar mass, not a printed value. Blank lines part the entries; values can stand above or below the compound they belong to.

Legend:
[1] = Metabolic stability in human liver microsomes assessed as intrinsic clearance; format: ADME, Microsome; settings: read-out: CLH
[2] = Thermodynamic solubility of the compound at pH 7; format: physicochemical; settings: buffer, read-out: Therm_solubility
[3] = Half life in Sprague-Dawley rat at 0.6 mg/kg, iv; format: ADME, organism-based; settings: in vivo
[4] = Volume of distribution at steady state in CD1 mouse at 2 mg/kg, iv; format: ADME, organism-based; settings: in vivo, read-out: Vdss
[5] = Clearance in Sprague-Dawley rat at 0.6 mg/kg, iv; format: ADME, organism-based; settings: in vivo
[6] = Volume of distribution at steady state in Sprague-Dawley rat at 0.6 mg/kg, iv; format: ADME, organism-based; settings: in vivo, read-out: Vdss
[7] = Clearance in CD1 mouse at 2 mg/kg, iv; format: ADME, organism-based; settings: in vivo
[8] = Half life in CD1 mouse at 2 mg/kg, iv; format: ADME, organism-based; settings: in vivo
[9] = Clearance in Sprague-Dawley rat at 5 mg/kg, po or 1.25 mg/kg, iv relative to liver blood flow; format: ADME, organism-based; settings: in vivo
[10] = Cmax in Mongrel dog at 2.5 mg/kg, po; format: ADME, organism-based, Canis lupus familiaris; design: dose 2.5 mg/kg, route po; settings: in vivo
[11] = Half life in Sprague-Dawley rat at 5 mg/kg, po or 1.25 mg/kg, iv; format: ADME, organism-based; settings: in vivo
[12] = Volume of distribution at steady state in Mongrel dog at 2.5 mg/kg, po or 1 mg/kg, iv; format: ADME, organism-based, Canis lupus familiaris; settings: in vivo
[13] = Cmax in Sprague-Dawley rat at 5 mg/kg, po; format: ADME, organism-based; design: dose 5 mg/kg, route po; settings: in vivo
[14] = Clearance in Mongrel dog at 2.5 mg/kg, po or 1 mg/kg, iv relative to liver blood flow; format: ADME, organism-based, Canis lupus familiaris; settings: in vivo
[15] = AUC (0 to infinity) in Sprague-Dawley rat at 5 mg/kg, po; format: ADME, organism-based; design: time infinity, dose 5 mg/kg, route po; settings: in vivo
[16] = Oral bioavailability in Sprague-Dawley rat at 5 mg/kg; format: ADME, organism-based; settings: in vivo
[17] = Ratio of AUC (0 to 24 hrs) in liver to plasma in Sprague-Dawley rat at 5 mg/kg, po or 1.25 mg/kg, iv; format: ADME, organism-based; settings: read-out: Ratio AUC
[18] = Tmax in Mongrel dog at 2.5 mg/kg, po; format: ADME, organism-based, Canis lupus familiaris; settings: in vivo
[19] = Half life in Mongrel dog at 2.5 mg/kg, po or 1 mg/kg, iv; format: ADME, organism-based, Canis lupus familiaris; settings: in vivo
[20] = Oral bioavailability in Mongrel dog at 2.5 mg/kg; format: ADME, organism-based, Canis lupus familiaris; settings: in vivo
[21] = Tmax in Sprague-Dawley rat at 5 mg/kg, po; format: ADME, organism-based; settings: in vivo
[22] = AUC (0 to infinity) in Mongrel dog at 2.5 mg/kg, po; format: ADME, organism-based, Canis lupus familiaris; design: time infinity, dose 2.5 mg/kg, route po; settings: in vivo
[23] = Volume of distribution at steady state in Sprague-Dawley rat at 5 mg/kg, po or 1.25 mg/kg, iv; format: ADME, organism-based; settings: in vivo
[24] = Solubility of the compound; format: physicochemical
[25] = Cmax in CD1 mouse at 10 mg/kg, po; format: ADME, organism-based; design: dose 10 mg/kg, route po; settings: in vivo
[26] = Oral bioavailability in CD1 mouse at 10 mg/kg; format: ADME, organism-based; settings: in vivo
Cytochrome P450 [27] = assay: Inhibition of CYP (unknown origin); format: ADME, protein assay; settings: human
[28] = target: Core antigen (Hepatitis B virus) (UniProt Q03732); assay: Modulation of capsid assembly in HBV infected in human HepG2.2.15 cells assessed as fold shift in inhibition of viral DNA replication in presence of 40% normal human serum incubated for 3 days followed by replacement with fresh medium containing compound and measured after 3 days by QuantiGene assay; format: cell-based; settings: time 6.0 day
[29] = Tmax in CD1 mouse at 10 mg/kg, po; format: ADME, organism-based; settings: in vivo
Cytochrome P450 [30] = assay: Induction of CYP (unknown origin); format: ADME, protein assay; settings: human
[31] = AUC (0 to infinity) in CD1 mouse at 10 mg/kg, po; format: ADME, organism-based; design: time infinity, dose 10 mg/kg, route po; settings: in vivo
[32] = Half life in CD1 mouse at 10 mg/kg, po or 2.5 mg/kg, iv; format: ADME, organism-based; settings: in vivo
[33] = Volume of distribution at steady state in CD1 mouse at 10 mg/kg, po or 2.5 mg/kg, iv; format: ADME, organism-based; settings: in vivo
[34] = Clearance in CD1 mouse at 10 mg/kg, po or 2.5 mg/kg, iv relative to liver blood flow; format: ADME, organism-based; settings: in vivo

Sequence of Core antigen (Hepatitis B virus) (Q03732 as listed by the source): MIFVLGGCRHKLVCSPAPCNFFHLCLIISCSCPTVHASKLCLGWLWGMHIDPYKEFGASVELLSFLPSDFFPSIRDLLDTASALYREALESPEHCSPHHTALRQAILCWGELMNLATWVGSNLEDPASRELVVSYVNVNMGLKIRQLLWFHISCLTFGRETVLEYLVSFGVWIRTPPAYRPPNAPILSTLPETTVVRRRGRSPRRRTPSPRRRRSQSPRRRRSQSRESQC

Compound: CN1O[C@@H](CO)Cn2nc3c(c2C1=O)CN(C(=O)Nc1ccc(F)c(Cl)c1)CC3
CLint scaled [1]: 7 mL/min/kg

Compound: C[C@@H]1Cc2nn3c(c2CN1C(=O)Nc1ccc(F)c(Cl)c1)C(=O)N(C)O[C@@H](CN(C)C)C3
CLint scaled [1]: 19 mL/min/kg
solubility thermodynamic [2]: 176 µM (≈ 81.8 µg/mL)

Compound: C[C@@H]1Cc2nn3c(c2CN1C(=O)Nc1ccc(F)c(C#N)c1)C(=O)N(C)O[C@@H](C(=O)N(C)CC(F)F)C3
CLint scaled [1]: 14 mL/min/kg
solubility thermodynamic [2]: 45 µM (≈ 23.4 µg/mL)

Compound: C[C@@H]1Cc2nn3c(c2CN1C(=O)Nc1ccc(F)c(Cl)c1)C(=O)N(C)O[C@@H](CO)C3
CLint scaled [1]: 11 mL/min/kg
solubility thermodynamic [2]: 183 µM (≈ 80.1 µg/mL)

Compound: Cc1cc(NC(=O)N2Cc3c(nn4c3C(=O)N(C)O[C@@H](CO)C4)C[C@H]2C)ccc1F
CLint scaled [1]: < 5 mL/min/kg
half-life [3]: 0.7 h
solubility thermodynamic [2]: > 200 µM
Vd [4]: 2.2 L/kg
clearance [5]: 47 mL/min/kg
Vd [6]: 2.1 L/kg
clearance [7]: 39 mL/min/kg
half-life [8]: 1.5 h

Compound: C[C@@H]1Cc2nn3c(c2CN1C(=O)Nc1ccc(F)c(C#N)c1)C(=O)N(C)O[C@@H](COCC(F)F)C3
CLH [9]: 20%
Cmax [10]: 1170 ng/mL
half-life ([11]; Sprague-Dawley): 1.8 h
CLint scaled [1]: < 5 mL/min/kg
Vdss [12]: 1.2 L/kg
Cmax ([13]; Sprague-Dawley, read-out: Cmax): 533 ng/mL
CLH [14]: 9%
solubility thermodynamic [2]: 22 µM (≈ 10.8 µg/mL)
AUC(0-inf) [15]: 3840 ng·h/mL
bioavailability [16]: 71%
Kp [17]: 3.8
Tmax [18]: 0.75 h
half-life [19]: 5.6 h
bioavailability [20]: 70%
Tmax ([21]; Sprague-Dawley, read-out: Tmax): 1 h
AUC(0-inf) [22]: 10600 ng·h/mL
Vdss [23]: 2 L/kg

Compound: CN1OC(CO)Cn2nc3c(c2C1=O)CN(C(=O)Nc1ccc(F)c(Cl)c1)CC3 (racemic)
CLint scaled [1]: 8 mL/min/kg
solubility thermodynamic [2]: 183 µM (≈ 77.6 µg/mL)

Compound: C[C@@H]1Cc2nn3c(c2CN1C(=O)Nc1ccc(F)c(C(F)(F)F)c1)C(=O)N(C)O[C@@H](CO)C3
CLint scaled [1]: 7.2 mL/min/kg
half-life [3]: 1.4 h
solubility thermodynamic [2]: 172 µM (≈ 81.1 µg/mL)
Vd [4]: 5.3 L/kg
clearance [5]: 24 mL/min/kg
Vd [6]: 2.3 L/kg
clearance [7]: 58 mL/min/kg
half-life [8]: 1.6 h

Compound: C[C@H]1Cc2[nH]nc(-c3cscn3)c2CN1C(=O)Nc1ccc(F)c(C#N)c1
solubility [24]: 45 µM (≈ 17.2 µg/mL)

Compound: C[C@@H]1Cc2nn3c(c2CN1C(=O)Nc1ccc(F)c(C#N)c1)C(=O)N(C)O[C@@H](CO)C3
CLint scaled [1]: < 5 mL/min/kg
half-life [3]: 0.5 h
solubility thermodynamic [2]: > 200 µM
Vd [4]: 4 L/kg
clearance [5]: 66 mL/min/kg
Vd [6]: 1.9 L/kg
clearance [7]: 96 mL/min/kg
half-life [8]: 1.2 h

Compound: C[C@@H]1Cc2nn3c(c2CN1C(=O)Nc1ccc(F)c(C#N)c1)C(=O)N(C)O[C@@H](CF)C3
CLH [9]: 93%
Cmax [25]: 1420 ng/mL
bioavailability [26]: 66%
Cmax [10]: 1310 ng/mL
t1/2 ([11]; po, 5 mg/kg): 0.4 h
CLint scaled [1]: < 5 mL/min/kg
inhibition (INH) (Cytochrome P450 [27]): Not Active
fold change (FC) [28]: 2
Vdss [12]: 1.5 L/kg
Tmax [29]: 0.4 h
Activity (Cytochrome P450 [30]): Not Active
AUC(0-inf) [31]: 4340 ng·h/mL
Cmax [13]: 20.1 ng/mL
CLH [14]: 11%
solubility thermodynamic [2]: 63 µM (≈ 27.1 µg/mL)
half-life [32]: 7.9 h
AUC(0-inf) [15]: 71.8 ng·h/mL
Vdss [33]: 6.3 L/kg
CLH [34]: 21%
bioavailability [16]: 7.4%
Tmax [18]: 1 h
half-life [19]: 5.4 h
bioavailability [20]: 79%
Tmax ([21]; po, 5 mg/kg): 0.5 h
AUC(0-inf) [22]: 9550 ng·h/mL
Vdss [23]: 2.5 L/kg

Compound: C[C@@H]1Cc2nn3c(c2CN1C(=O)Nc1ccc(F)c(C#N)c1)C(=O)N(C)OCC3
CLint scaled [1]: < 5 mL/min/kg
solubility thermodynamic [2]: 80 µM (≈ 31.9 µg/mL)

The next lines start with the values.

CLint scaled [1]: 87 mL/min/kg
Compound: CCN(C)C(=O)c1n[nH]c2c1CN(C(=O)Nc1cccc(Cl)c1)CC2

CLint scaled [1]: 192 mL/min/kg
Compound: O=C(Nc1cccc(Cl)c1)N1CCc2[nH]nc(-c3ccccc3)c2C1

CLint scaled [1]: 55 mL/min/kg
Compound: CCON(C)C(=O)c1n[nH]c2c1CN(C(=O)Nc1cccc(Cl)c1)CC2

CLint scaled [1]: 38 mL/min/kg
Compound: O=C(Nc1cccc(Cl)c1)N1CCc2[nH]nc(C(=O)N3CCCCO3)c2C1

CLint scaled [1]: 65 mL/min/kg
Compound: CC(C)ON(C)C(=O)c1n[nH]c2c1CN(C(=O)Nc1cccc(Cl)c1)CC2

CLint scaled [1]: 8 mL/min/kg
solubility thermodynamic [2]: 183 µM (≈ 74.3 µg/mL)
Compound: CN(OC1COC1)C(=O)c1n[nH]c2c1CN(C(=O)Nc1cccc(Cl)c1)CC2

CLint scaled [1]: 171 mL/min/kg
Compound: CCOC(=O)c1n[nH]c2c1CN(C(=O)Nc1cccc(Cl)c1)CC2

CLint scaled [1]: 214 mL/min/kg
Compound: CCCC(=O)c1n[nH]c2c1CN(C(=O)Nc1cccc(Cl)c1)CC2

CLint scaled [1]: 9 mL/min/kg
Compound: CN1O[C@H](CO)Cn2nc3c(c2C1=O)CN(C(=O)Nc1ccc(F)c(Cl)c1)CC3

CLint scaled [1]: 31 mL/min/kg
solubility thermodynamic [2]: 161 µM (≈ 63.4 µg/mL)
Compound: CN(OCCO)C(=O)c1n[nH]c2c1CN(C(=O)Nc1cccc(Cl)c1)CC2

CLint scaled [1]: 33 mL/min/kg
Compound: CON(C)C(=O)c1n[nH]c2c1CN(C(=O)Nc1cccc(Cl)c1)CC2
